Source: patent publication US10800788B2, “4-(aryl)-N-(3-alkoxyfuro[2,3-b]pyrazin-2-yl)-piperazine-1-carboxamide derivative and antiproliferative effect thereof” (Dongguk University Industry-Academic Cooperation Foundation, priority 2016, dated 2020)
Where two headings read alike, the source gives them in different places.

What was measured:
[1] = tested on: MDA-MB-231 (breast cancer) cell line; assay: Cell growth inhibition experiment (SRB), MDA-MB-231; type: cell-based, human; details: 96 hours incubation
Description: (§1) The cell lines below were used in order to confirm the efficacy of the compounds synthesized in Examples 1 to 60. Human PANC-1 (pancreatic cancer) and MDA-MB-231 (breast cancer) cell lines were obtained from the American Type Culture Collection (ATCC; Manassas, Va.); and HN31 (head and neck cancer) and UMRC2 (kidney cancer) cell lines were secured from the United States National Institutes of Health (Bethesda, Md.). The MDA-MB-231, UMRC2, HN31, and PANC-1 cell lines were cultured in Dulbecco modified Eagle medium (DMEM; Invitrogen, Carlsbad, Calif.) containing FBS (10%), HEPES (10 mM), penicillin (100 U/mL), and streptomycin (100 μg/mL). All cell lines were cultured in an incubator (37° C., 5% CO2).
(§2) The 4-(aryl)-N-(3-alkoxyfuro[2,3-b]pyrazin-2-yl)-piperazine-1-carboxamide derivative compounds synthesized according to Examples 1 to 60 of the present invention were treated with various human tissue-derived cancer cell lines cultured according to Experimental Example 1, and thus the inhibitory effect of the growth of human cancer cells was confirmed. The cell growth inhibition experiment was conducted using the sulforhodamine B (SRB) technique (Skehan et al., J. National Cancer Institute, 1990, 82: 1107-1112). Specifically, each cell line was seeded in a 96-well plate at a density of 2 to 3×10^3 cells/well, cultured overnight, and then treated with the 4-(aryl)-N-(3-alkoxyfuro[2,3-b]pyrazin-2-yl)-piperazine-1-carboxamide derivative compounds of the present invention. The experiment was repeated 3 times for each compound. Cells treated with each compound were additionally incubated for 96 hours, fixed with 10% trichloroacetic acid (TCA), and then left at 4° C. for 1 hour. The resultant was washed 3 times with distilled water. Thereafter, each cell was treated with 0.4% sulforhodamine B dissolved in 1% acetic acid, stained for 30 minutes, and then washed 4 times with 1% acetic acid. The resultant was dried in the air. After shaking the resultant in Tris solution (10 mM) for 5 minutes, the absorbance was measured at 530 nm using a Benchmark Plus Microplate reader (Bio-Rad Laboratories, Hercules, Calif.).
(§3) In order to convert the OD530 value to the number of viable cells per each well, the measured OD530 value was compared to the standard OD530-vs.-cell number curve of each cell line. The percent survival was calculated using the following formula: % survival=Nlive cells(test)/Nlive cells(control)×100

[2] = tested on: UMRC2 (kidney cancer) cell line; assay: Cell growth inhibition experiment (SRB), UMRC2; type: cell-based, human; details: 96 hours incubation
Description: as §1, §2, §3

[3] = tested on: PANC-1 (pancreatic cancer) cell line; assay: Cell growth inhibition experiment (SRB), PANC-1; type: cell-based; details: Homo sapiens, PANC-1, 96 h, 96 hours incubation
Description: as §1, §2, §3

[4] = tested on: HN31 (head and neck cancer) cell line; assay: Cell growth inhibition experiment (SRB), HN31; type: cell-based, human; details: 96 hours incubation
Description: as §1, §2, §3

A549 = assay: Cell growth inhibition experiment (SRB), A549; type: cell-based; details: Homo sapiens, A549, 96 h, 96 hours incubation, read-out: IC50 (μM) for cancer cell line A549
Description: as §2, §3

HEK293 = assay: Cell growth inhibition experiment (SRB), HEK293; type: cell-based, human; details: 96 hours incubation, read-out: IC50 (μM) for cancer cell line HEK293
Description: as §2, §3

HUVEC = assay: Cell growth inhibition experiment (SRB), HUVEC; type: cell-based, human; details: 96 hours incubation, read-out: IC50 (μM) […]
Description: as §2, §3

HT29 = assay: Cell growth inhibition experiment (SRB), HT29; type: cell-based, human; details: 96 hours incubation, read-out: IC50 (μM) for cancer cell line HT29
Description: as §2, §3

SK-OV-3 = assay: Cell growth inhibition experiment (SRB), SK-OV-3; type: cell-based, human; details: 96 hours incubation, read-out: IC50 (μM) for cancer cell line SK-OV-3
Description: as §2, §3

SMILES | IC50 ([1]; Homo sapiens, MDA-MB-231, 96 h) [µM] | IC50 ([2]; Homo sapiens, UMRC2, 96 h) [µM] | IC50 [3] [µM] | IC50 ([4]; Homo sapiens, 96 h) [µM] | IC50 (A549) [µM] | IC50 (HEK293; Homo sapiens, HEK293, 96 h) [µM] | IC50 (HUVEC; Homo sapiens, HUVEC, 96 h) [µM] | IC50 (HT29; Homo sapiens, HT-29, 96 h) [µM] | IC50 (SK-OV-3; Homo sapiens, SK-OV-3, 96 h) [µM] | IC50 [1] [µM] | IC50 [2] [µM] | IC50 [4] [µM] | IC50 (HEK293) [µM] | IC50 (HUVEC) [µM] | IC50 (HT29) [µM] | IC50 (SK-OV-3) [µM]
CCOc1nc2occc2nc1NC(=O)N1CCN(c2cc(C)cc(OC)c2)CC1 [Example 12, N-(3-Ethoxyfuro[2,3-b]pyrazin-2-yl)-4-(3-methoxy-5-methylphenyl)piperazine-1-carboxamide] | 0.05 | 0.14 | 0.24 | 0.33 | 1.28 | 1.55 | 0.27 | 1.3 | 1.29 |  |  |  |  |  |  | 
COc1cc(C)cc(N2CCN(C(=O)Nc3nc4ccoc4nc3OC)CC2)c1 [Example 2, 4-(3-Methoxy-5-methylphenyl)-N-(3-methoxyfuro[2,3-b]pyrazin-2-yl)piperazine-1-carboxamide] | 0.26 | 0.38 | 0.45 | 0.49 | 0.23 | 1.93 | 0.91 | 0.62 | 0.82 |  |  |  |  |  |  | 
COc1cc(OC)cc(N2CCN(C(=O)Nc3nc4cc(Cl)oc4nc3OC)CC2)c1 [Example 41, N-(6-Chloro-3-methoxyfuro[2,3-b]pyrazin-2-yl)-4-(3,5-dimethoxyphenyl)piperazine-1-carboxamide] | 0.51 | 0.32 | 0.36 | 0.68 | 1.87 | 1.66 | 1.73 | 1.87 | < 2.5 |  |  |  |  |  |  | 
COc1cc(OCCN(C)C)cc(N2CCN(C(=O)Nc3nc4cc(C)oc4nc3OC)CC2)c1 [Example 24, 4-(3-(2-(Dimethylamino)ethoxy)-5-methoxyphenyl)-N-(3-methoxy-6-methylfuro[2,3-b]pyrazin-2-yl)piperazine-1-carboxamide] | 0.12 | 0.36 | 0.44 | < 2.5 | 0.87 | 0.25 | < 2.5 | 0.36 | 0.12 |  |  |  |  |  |  | 
CCOc1nc2oc(Cl)cc2nc1NC(=O)N1CCN(c2cc(C)cc(C)c2)CC1 [Example 55, N-(6-Chloro-3-ethoxyfuro[2,3-b]pyrazin-2-yl)-4-(3,5-dimethylphenyl)piperazine-1-carboxamide] | 0.32 | 0.68 | 1.68 | 1.75 | < 2.5 | < 2.5 | < 2.5 | < 2.5 | < 2.5 |  |  |  |  |  |  | 
CCOc1nc2occc2nc1NC(=O)N1CCN(c2cc(F)cc(OC)c2)CC1 [Example 13, N-(3-Ethoxyfuro[2,3-b]pyrazin-2-yl)-4-(3-fluoro-5-methoxyphenyl)piperazine-1-carboxamide] | 0.16 | 0.26 | 0.65 | 0.72 | < 2.5 | < 2.5 | < 2.5 | < 2.5 | < 2.5 |  |  |  |  |  |  | 
COc1cc(OC)cc(N2CCN(C(=O)Nc3nc4ccoc4nc3OC)CC2)c1 [Example 1, 4-(3,5-Dimethoxyphenyl)-N-(3-methoxyfuro[2,3-b]pyrazin-2-yl)piperazine-1-carboxamide] | 0.12 | 0.03 | 0.53 | 0.27 | 1.13 | 0.63 | 0.12 | 0.31 | 0.27 |  |  |  |  |  |  | 
COc1cc(F)cc(N2CCN(C(=O)Nc3nc4cc(Cl)oc4nc3OC)CC2)c1 [Example 43, N-(6-Chloro-3-methoxyfuro[2,3-b]pyrazin-2-yl)-4-(3-fluoro-5-methoxyphenyl)piperazine-1-carboxamide] | 0.21 | 0.32 |  | 0.68 |  | 1.32 | 1.77 | 1.59 | 2.13 | 0.12 | 0.36 | 0.57 | < 2.5 | < 2.5 | < 2.5 | < 2.5
CCOc1nc2oc(C)cc2nc1NC(=O)N1CCN(c2cccc(OC(F)(F)F)c2)CC1 [Example 40, N-(3-Ethoxy-6-methylfuro[2,3-b]pyrazin-2-yl)-4-(3-(trifluoromethoxy)phenyl)piperazine-1-carboxamide] | < 2.5 | < 2.5 | < 2.5 | < 2.5 | < 2.5 | < 2.5 | < 2.5 | < 2.5 | < 2.5 |  |  |  |  |  |  | 
COc1nc2oc(Cl)cc2nc1NC(=O)N1CCN(c2cc(C)cc(F)c2)CC1 [Example 46, N-(6-Chloro-3-methoxyfuro[2,3-b]pyrazin-2-yl)-4-(3-fluoro-5-methylphenyl)piperazine-1-carboxamide] | 1.68 | 1.35 | 1.94 | 1.83 | < 2.5 | < 2.5 | < 2.5 | < 2.5 | < 2.5 |  |  |  |  |  |  | 
CCOc1nc2occc2nc1NC(=O)N1CCN(c2cccc(OC(F)(F)F)c2)CC1 [Example 20, N-(3-Ethoxyfuro[2,3-b]pyrazin-2-yl)-4-(3-(trifluoromethoxy)phenyl)piperazine-1-carboxamide] | 0.25 | 1.63 | 0.36 | 0.36 | 0.24 | 0.12 | 0.21 | 0.62 | 0.22 |  |  |  |  |  |  | 
CCOc1nc2oc(Cl)cc2nc1NC(=O)N1CCN(c2cc(C)cc(F)c2)CC1 [Example 56, N-(6-Chloro-3-ethoxyfuro[2,3-b]pyrazin-2-yl)-4-(3-fluoro-5-methylphenyl)piperazine-1-carboxamide] | 0.36 | 0.87 | 1.68 | 1.75 | < 2.5 | < 2.5 | < 2.5 | < 2.5 | < 2.5 |  |  |  |  |  |  | 
